Data as given in publication PMC8634879, “Design, Synthesis, and Biological Evaluation of Pyrano[2,3-c]-pyrazole–Based RalA Inhibitors Against Hepatocellular Carcinoma” (Frontiers in Chemistry, 2021).

Key:
RalA = target: T1, RalA (Homo sapiens, UniProt P11233); assay: ELISA-based RalA activity assay (RalBP1-coated plates, lysates of compound-treated cells); format: biochemical
T1 construct: expressed in transfected cells; host or cells: HepG2 (from b6; the methods paragraph names no cell line)
T1 sequence (P11233 1-203 limits assumed): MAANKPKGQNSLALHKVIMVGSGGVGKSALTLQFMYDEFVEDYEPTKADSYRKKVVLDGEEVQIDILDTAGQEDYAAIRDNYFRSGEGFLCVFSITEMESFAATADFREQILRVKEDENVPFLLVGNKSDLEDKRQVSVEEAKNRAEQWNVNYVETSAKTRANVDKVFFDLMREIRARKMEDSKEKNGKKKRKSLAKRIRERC
Summary of the method: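 Lysates of compound- or vehicle-treated cells, cleared by cold centrifugation, incubated overnight at 4°C on RalBP1-coated plates. Bound Ral detected with mouse anti-FLAG then HRP anti-mouse antibody; reaction stopped with 2 mol/L sulfuric acid and read at OD450.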

HepG2 xenograft = assay: HepG2 subcutaneous xenograft model; format: in vivo
Protocol: Several reports have characterized RalA/B potential regulatory roles in autophagy ([Zhang et al., 2019]; [Pang et al., 2020]; [Zhang et al., 2020]). Considering the dual effect of HCC autophagy, we assessed changes in HepG2 cell autophagy levels after the addition of 0.5 or 2.0 μM of 4p, before incubation. Based on HepG2 cells’ TEM images with or without 4p (Figure 5B), autophagy vacuoles per cell decreased in the 4p-treated group (p < 0.01). After 4p treatments, LC3-II and ATG5 protein levels declined and SQSTM1 increased. […] In GFP-LC3–transfected HepG2 cells, cytoplasm LC3 fluorescent puncta numbers also declined after 4p treatments. […] The in vivo antitumor capacities of 4p were determined on a HepG2 subcutaneous xenograft model. The 4p intraperitoneal injections were set to 15 mg/kg and 60 mg/kg, according to in vitro results. […] The potential 4p molecular mechanisms were further validated using immunofluorescence and IHC analyses of tissue sections stained by antibodies against TUNEL, Ki-67, RalA, LC3-II, and SQSTM1. […] Therefore, the in vivo results were consistent with in vitro experiments.
Female Balb/c nude mice aged 6–8 weeks were purchased from Beijing Huafukang Co. Ltd. (Beijing, China). Animal-based experiments complied with the guidelines of the Animal Ethics Committee (Sichuan University), and all aspects were approved by the Animal Ethics Committee of West China Hospital of Sichuan University (China). In brief, HepG2 cells were injected subcutaneously in the dorsal flank of Balb/c nude mice (5*10^5 cells per mice). Tumor volumes were recorded every 2 days post cancer cell injection. After the therapeutic endpoint, all mice were euthanized, and tumor tissues were stripped, fixed in formalin, embedded in paraffin, and sectioned. The IHC and immunofluorescent staining methods were performed following methods as per our previous research, ([Zhang et al., 2019]; [Pan et al., 2020]; [Pang et al., 2020]; [Zhang et al., 2020]), and detailed experimental procedures are also described in supporting materials. […]
2. Western blotting analysis
For western blotting, the extracts of total protein from each sample were treated in accordance with the method we described previously. In short, the total proteins were loaded into the SDS-PAGE gel and separated through the different of their molecular weight in electrophoresis, after that the separated proteins were shifted into a PVDF membrane (Millipore, Burlington, MA, USA) and incubated through corresponding membrane react pathways. The resulted membranes reacted with major antibodies and HRP (horseradish peroxidase)-conjugated secondary antibodies. The expression profiles of target proteins can be identified through an enhanced chemiluminescence (ECL) substrate.
3. Immunohistochemistry and immunofluorescent assays
The histological sections of tumor tissue were immersed into EDTA antigen recovery buffer (pH 8.0) or citrate buffer (pH 6.0), and then microwave was used to recover antigen. Then the slide was incubated with the corresponding primary antibody at 37 ℃ for 30-40 min. Normal anti-rabbit or anti-mouse IgG was used as a negative control group. Immunohistochemical analysis was performed with diaminobenzidine solution after the sections was treated with HRP polymer as well as the second antibody for 30 min. Immunofluorescence (IF) test was carried out by treating slides with fluorescein combined with secondary antibody and detecting under fluorescence microscope. The IHC staining method is to use the corresponding primary antibody, as we reported in previous

Structure (SMILES): COc1ccc(S(=O)(=O)NC2=C(C#N)C(c3ccc(C(F)(F)F)cc3)c3c(C)nn(-c4ccccc4)c3O2)cc1 (stereo not drawn) [4p, N-(5-cyano-3-methyl-1-phenyl-4-(4-(trifluoromethyl)phenyl)-1,4-dihydropyrano[2,3-c]-pyrazol-6-yl)-4-methoxybenzenesulfonamide]
- remaining activity at 1 µM (RalA; 1 μM compound, % control = activity remained): 13%
- IC50 (RalA; enzymatic inhibition, average of at least three independent replicates ± SD, read-out: Kinase activities (IC50, μM) RalA): 0.22 ± 0.04 µM
- body weights (HepG2 xenograft; 15 and 60 mg/kg i.p.): without significant changes
- total RalA levels in tumor sections (HepG2 xenograft; IHC): No clear changes
- mean tumor weights compared to the control (HepG2 xenograft; both high- and low-dosage groups (60 and 15 mg/kg i.p.), p < 0.01): notably declined
- TUNEL and SQSTM1 levels in tumor sections (HepG2 xenograft; high dosage group, immunofluorescence/IHC): increased
- LC3-II expression in tumor sections (HepG2 xenograft; high dosage group, p < 0.01): decreased
- tumor growth inhibition (TGI) (HepG2 xenograft; high dosage, 60 mg/kg intraperitoneal injection): 63%
- tumor growth inhibition (TGI) (HepG2 xenograft; low dosage, 15 mg/kg intraperitoneal injection): 39%
